Here are results for 14 compounds from ChEMBL document CHEMBL1201862, “PubChem BioAssay data set” (2004).

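Assay format: 96-well plates, 48-hour exposure. GI50: concentration for 50% inhibition of growth.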 Calls of active or inactive are those of the source. No stated cut-off is given here; in the data, active = GI50 up to about 1.1 µM and inactive = higher.

Among the test systems are 786-0; CAKI-1; CCRF-CEM; COLO 205; HCC 2998; HOP-62; HT-29; IGROV-1; LOX IMVI; MCF7; MDA-MB-435; Malme-3M; OVCAR-4; PC-3; SNB-19; T47D; UACC-62; SF-268; Hs-578T.
Common to all, as to assay: NCI tumour cell line growth inhibition, 48 h

Turning to `COc1nc(C(Cl)(Cl)Cl)c(Cl)c(O)c1Cl`, the GI50 was > 100 µM (inactive) in the assay on 786-0; 30.5 µM (inactive) in the assay with CAKI-1; > 100 µM (inactive) in the assay on CCRF-CEM; > 100 µM (inactive) in the assay on COLO 205; > 100 µM (inactive) in the assay with HCC 2998; > 100 µM (inactive) in the assay on HOP-62. Also, the GI50 in the assay with HT-29, in the assay with IGROV-1, in the assay on LOX IMVI, with MCF7, in the assay with MDA-MB-435 and in the assay on Malme-3M was > 100 µM (inactive) each time. The GI50 with OVCAR-4, in the assay with PC-3, with SNB-19, with T47D and with UACC-62 was > 100 µM (inactive) in each case.
Regarding `S=C(Nc1ccccn1)Nc1ccccc1Cl`, the GI50 with 786-0 was > 67.5 µM (inactive); in the assay with CAKI-1, > 52.4 µM (inactive); with CCRF-CEM, > 100 µM (inactive); with COLO 205, > 100 µM (inactive); in the assay on HCC 2998, > 100 µM (inactive); with HOP-62, 52 µM (inactive). Further, the GI50 was > 61.1 µM (inactive) in the assay with HT-29; > 36.1 µM (inactive) in the assay on IGROV-1; > 100 µM (inactive) in the assay with LOX IMVI; 5.98 µM (inactive) with MCF7; 69.5 µM (inactive) in the assay with MDA-MB-435; > 48.2 µM (inactive) in the assay on Malme-3M. In addition, the GI50 in the assay with OVCAR-4 is > 61.7 µM (inactive); with PC-3, > 84.5 µM (inactive); in the assay with SF-268 it was > 43.8 µM (inactive); in the assay with SNB-19 it was 27 µM (inactive); in the assay with T47D, 67.8 µM (inactive); with UACC-62 it was > 52.4 µM (inactive).
Take `CCN(CC)c1ccc(C(=C2C=CC(=[N+](CC)CC)C=C2)c2ccccc2)cc1`: the GI50 is 0.0352 µM (active) in the assay on 786-0; 0.164 µM (active) with CAKI-1; 0.0121 µM (active) in the assay with CCRF-CEM; 0.0307 µM (active) with COLO 205; 0.0351 µM (active) in the assay with HCC 2998; 0.102 µM (active) in the assay with HOP-62. Moreover, the GI50 in the assay on HT-29 is < 0.01 µM (active); with IGROV-1, 0.0689 µM (active); in the assay on LOX IMVI, 0.0219 µM (active); with Malme-3M it was 0.0304 µM (active); with OVCAR-4, 0.0353 µM (active); in the assay on SF-268 it was 0.0366 µM (active). For the same compound, the GI50 in the assay with SNB-19 is 0.043 µM (active); in the assay on UACC-62 it was 0.0451 µM (active).
Take `CC(=O)CCC(=O)C(=[N+]=[N-])S(=O)(=O)c1ccccc1`: the GI50 in the assay on 786-0, in the assay on CCRF-CEM, in the assay with COLO 205, in the assay on HCC 2998, with HOP-62 and in the assay on HT-29 was > 100 µM (inactive) in each case. In addition, the GI50 with Hs-578T, in the assay with IGROV-1, with LOX IMVI, in the assay on MCF7, in the assay on MDA-MB-435 and with Malme-3M was > 100 µM (inactive) throughout. The GI50 in the assay on PC-3, in the assay on SF-268, in the assay with SNB-19 and in the assay on UACC-62 was > 100 µM (inactive) in each case.
Take `O=c1c(/C=C/c2c(O)ccc3ccccc23)nnc2sc(-c3cccc([N+](=O)[O-])c3)nn12`: the GI50 was 7.13 µM (inactive) with 786-0; 19.1 µM (inactive) in the assay on CAKI-1; 26.5 µM (inactive) in the assay on COLO 205; 18.2 µM (inactive) with HOP-62; 36.4 µM (inactive) with HT-29; 12.5 µM (inactive) with Hs-578T. For the same compound, the GI50 was 15.3 µM (inactive) with IGROV-1; 6.56 µM (inactive) with LOX IMVI; 17.1 µM (inactive) in the assay on MDA-MB-435; 11.4 µM (inactive) in the assay on Malme-3M; 6.98 µM (inactive) in the assay on OVCAR-4; 10.1 µM (inactive) in the assay with PC-3. Moreover, the figures for the GI50 with SF-268 and in the assay on UACC-62 were 8.93 µM (inactive) and 11.4 µM (inactive), respectively.
In the case of `CCSC1=N/C(=C\c2ccco2)C(=O)N1`, the GI50 with 786-0, with CCRF-CEM, in the assay on COLO 205, with HOP-62, in the assay on HT-29 and in the assay with Hs-578T was > 100 µM (inactive) throughout. Also, the GI50 is 74.8 µM (inactive) in the assay with IGROV-1; > 100 µM (inactive) in the assay with LOX IMVI; 6.59 µM (inactive) in the assay on MCF7; > 100 µM (inactive) with MDA-MB-435; > 100 µM (inactive) with Malme-3M; > 100 µM (inactive) in the assay on PC-3. In addition, the GI50 in the assay with SF-268 is > 100 µM (inactive); in the assay on SNB-19, 70.8 µM (inactive); in the assay on UACC-62 it was > 100 µM (inactive).
`CCC(=O)Nc1nc2c(ncn2C2OC(COC(=O)CC)C(OC(=O)CC)C2OC(=O)CC)c(=O)[nH]1` (configuration not stated): the GI50 with 786-0, in the assay with CAKI-1, with HCC 2998, with HOP-62, with HT-29 and in the assay on IGROV-1 was > 100 µM (inactive) throughout. The GI50 in the assay on LOX IMVI, in the assay on Malme-3M, in the assay with OVCAR-4, in the assay with SF-268, in the assay with SNB-19 and in the assay with UACC-62 was > 100 µM (inactive) in each case.
For `O=CCCCC(Sc1ccccc1)Sc1ccccc1`, the GI50 was 19.1 µM (inactive) in the assay with 786-0; 56.8 µM (inactive) in the assay with CAKI-1; 12 µM (inactive) with CCRF-CEM; 23.5 µM (inactive) in the assay with COLO 205; 31 µM (inactive) in the assay with HCC 2998; > 100 µM (inactive) in the assay on HOP-62. Moreover, the GI50 is 19.9 µM (inactive) in the assay with IGROV-1; 13.7 µM (inactive) in the assay with LOX IMVI; 21.7 µM (inactive) with OVCAR-4; 18.4 µM (inactive) in the assay with SF-268; 45.4 µM (inactive) in the assay on SNB-19; 7.67 µM (inactive) in the assay with UACC-62.
`COC(=O)C(=O)C(C#N)c1ccc(CC#N)cc1` (configuration not stated): the GI50 in the assay with 786-0, in the assay on CAKI-1, with CCRF-CEM, with HT-29, in the assay with IGROV-1 and in the assay with LOX IMVI was > 100 µM (inactive) in each case. Further, the GI50 in the assay with Malme-3M, with SF-268, in the assay on SNB-19 and in the assay on UACC-62 was > 100 µM (inactive) in each case.
As for `O=C1CC(c2cccc([N+](=O)[O-])c2)C2(C(=O)NC(=O)NC2=O)C(c2cccc([N+](=O)[O-])c2)C1` (configuration not stated), the GI50 is > 100 µM (inactive) in the assay with 786-0; 32.9 µM (inactive) in the assay with CCRF-CEM; > 100 µM (inactive) in the assay with COLO 205; > 100 µM (inactive) in the assay with HOP-62; 75.9 µM (inactive) with HT-29; > 100 µM (inactive) in the assay with Hs-578T. Further, the GI50 with IGROV-1 was 60.7 µM (inactive); in the assay on LOX IMVI, 36.8 µM (inactive); with MCF7 it was 17.3 µM (inactive); in the assay with MDA-MB-435, > 100 µM (inactive); in the assay on Malme-3M, 0.783 µM (active); in the assay on OVCAR-4 it was > 100 µM (inactive). The GI50 with PC-3 was 69.7 µM (inactive); with SF-268 it was 19.7 µM (inactive); in the assay with SNB-19, > 100 µM (inactive); in the assay on UACC-62, 98.4 µM (inactive).
As to `c1cc(-c2cn[nH]c2)cc(-c2cn[nH]c2)c1`, the GI50 is 37.3 µM (inactive) with 786-0; 8.04 µM (inactive) in the assay on CAKI-1; 29.4 µM (inactive) with CCRF-CEM; 53.3 µM (inactive) in the assay on COLO 205; 88.9 µM (inactive) in the assay with HCC 2998; 17.8 µM (inactive) in the assay with HOP-62. Moreover, the GI50 in the assay with IGROV-1 was 51.2 µM (inactive); with LOX IMVI it was 36.8 µM (inactive); with OVCAR-4, 54 µM (inactive); with SF-268 it was 25.8 µM (inactive); in the assay with SNB-19, 61.1 µM (inactive); in the assay on UACC-62 it was 11.6 µM (inactive).
Take `N#CCCC1(CCC#N)CCc2ccccc2C1=O`: the GI50 with 786-0, in the assay with CAKI-1, in the assay with CCRF-CEM, in the assay with HCC 2998, in the assay with HOP-62 and in the assay with HT-29 was > 100 µM (inactive) throughout. Also, the GI50 in the assay on IGROV-1, in the assay on LOX IMVI, in the assay on MCF7, in the assay with MDA-MB-435, in the assay with Malme-3M and in the assay with OVCAR-4 was > 100 µM (inactive) in each case. Also, the GI50 in the assay on PC-3, with SF-268, in the assay with SNB-19, with T47D and with UACC-62 was > 100 µM (inactive) each time.
As to `CS(=O)(=O)N(CCC#N)c1ccc(/C=C2\N=C(c3ccccc3Cl)OC2=O)cc1`, the GI50 in the assay on 786-0, with CAKI-1, in the assay with CCRF-CEM, with COLO 205, in the assay with HCC 2998 and with HOP-62 was > 100 µM (inactive) each time. For the same compound, the GI50 in the assay with HT-29, in the assay on IGROV-1, with LOX IMVI, with Malme-3M, with SF-268 and in the assay on SNB-19 was > 100 µM (inactive) in each case. The GI50 in the assay with UACC-62 is > 100 µM (inactive).
Consider `O=C(O)COc1cc(-c2ccccc2F)nc2cc3c(cc12)OCO3`, for which the GI50 in the assay on 786-0, in the assay on CAKI-1, in the assay with CCRF-CEM, with COLO 205, in the assay on HCC 2998 and in the assay on HOP-62 was > 100 µM (inactive) each time. Besides, the GI50 in the assay with HT-29, in the assay with IGROV-1, in the assay on LOX IMVI, in the assay on MCF7, in the assay on MDA-MB-435 and in the assay with Malme-3M was > 100 µM (inactive) in each case. For the same compound, the GI50 in the assay with PC-3, in the assay on SF-268, in the assay with T47D and in the assay on UACC-62 was > 100 µM (inactive) throughout.
